How the values were obtained:
[1] = tested on: cell line ALL-1 (b1a2 junction); assay: Leukemic cell number of Ph1-positive ALL cell line expressing b1a2 junction; format: cell-based, human; settings: 50 μg at time zero, 25 μg/ml at 24 and 48 h; vs control and mismatch-treated cultures (FIG. 6)
K562 = settings: Caracciolo et al., Science 245; cited from earlier work
bcr-abl protein = settings: cited from earlier work
BV173 cells [2] = assay: Macroscopic examination / disease state of leukemic SCID mice; format: in vivo, SCID mice (human leukemic cells)
Description: Injection of the mice with BV173 cells induces a disease closely resembling that in human leukemia patients.
(§1) To determine whether synthetic phosphorothioate oligodeoxynucleotides targeted against the bcr-abl junction of […] cells would modify the disease process in SCID mice. SCID mice were injected with 10^6 BV173 cells. The mice then received 1 mg of sense (ATCAATAAGG AAGCCCTTCAGCG, SEQ ID NO:34) or antisense ([…] ATTGAT, SEQ ID NO:29) b2/a2 bcr-abl phosphorothioate oligodeoxynucleotides (pyrogen leven <1 Eu/mg; 0.2 ml in Iscove modified Dulbecco medium in 5-10 seconds) intravenously for each of 9 consecutive days, beginning either 7 or 21 days after introducing 10^6 BV173 cells. Control mice received the diluent (iscove's modified Dulbecco medium) only. These time points approximate distinct disease stages in humans.

BV173 cells [3] = assay: Clonogenic assay of tissues of leukemic SCID mice; format: in vivo, SCID mice (human leukemic cells)
Description: A second assay for leukemic disease comprised a clonogenic assay in semisolid medium. […] By contrast, BV173 cells formed numerous, rapidly growing colonies. To rule out the possibility that the presence of BV173 cells permitted the growth of murine progenitors, mixing experiments were carried out.
as §1
10^5 cells were plated in duplicate in 35×10 mm tissue culture dishes (Nunc, Inc., Naperville, Ill.) in HCC-4230 medium (Terry Fox Lab., Vancouver, Canada) supplemented with 2.5 mM L-glutamine, and allowed to grow for 12 days. Plates were scanned with an inverted microscope and total colony number was determined. The results are shown in FIG. 9 (C, untreated mouse; S, sense-treated mouse, AS, antisense-treated mouse).

BV173 cells (b2/a2) = assay: Proliferation of BV173 cells expressing b2a2 junction; format: cell-based, human
Description: Amplification of the bcr-abl junction with a 5' primer corresponding to bcr exon 2, and a 3' primer corresponding to abl exon 2, followed by hybridization to an 18-mer specific for the b2/a2 or the b3/a2 junction identified the b2/a2 breakpoint in these cells (data not shown).
The sensitivity of the BV173 cells to b2/a2 antisense phosphorothioate oligodeoxynucleotides was assessed. Phosphorothioate oligodeoxynucleotides were prepared on either an Applied Biosystems Model 380B or 390Z Automated Synthesis instrument using conventional phosphoramidite monomers and manufacturer-recommended procedures, which included substitution of tetraethylthiuran (or an equivalent sulfur-donor reagent) for iodine-water-pyridine, […] reversed-phase preparative chromatography, detritylation, and obtaining the final product in the form of its sodium salt, all according to previously published methodology: Zon and Stec, in Oligonucleotides and Analogues A Practical Approach, F. Eckstein, Ed. (Oxford Univerisity Press, Oxford 1991), pp. 87-108; Zon and Geiser, Anti-Cancer Drug Design 6, 539 (1991); Vu and Hirschenbein, Tetrahedron Lett. 32, 3005-3008 (1991).
BV173 cells were cultured in the presence of phosphorothioate b2/a2 antisense 26-mer CGCTGAAGGG CTTCTTCCT ATTGAT (SEQ ID NO:29), the phosphorothioate sense sequence ATCAATAAGGAAGCCCTTCAGCG (SEQUENCE ID NO:34), or the b3/a2 (SEQ ID NO:31) or b1/a2 (SEQ ID N0:33) phosphorothioate antisense 26-mer. […] The sense oligomer SEQ ID NO:34 gave no inhibition (FIG. 7, -.largecircle.-) in comparison to untreated control cells (FIG. 7, -.quadrature.-).

[4] = format: in vivo, SCID mice; settings: mice treated with bcr-abl antisense
Description: Severe combined immunodeficient (SCID) mice injected with leukemia cells developed a disease process closely resembling that in humans. […] The cell-associated accumulation of antisense oligomer in various organs reached 4-60 μM, which is more than adequate to inhibit growth of leukemic cells. (See FIG. 7).

BV173 cells [5] = assay: Survival of leukemic SCID mice; format: in vivo, SCID mice (human leukemic cells); settings: treatment starting from days +7 or +21 (FIG. 12)
Excerpt: To determine the lethal dose of BV173 cells in the SCID mice, we injected from 10^3 to 10^7 cells into the tail vein and monitored survival at various times postinjection. Mice injected with 10^7, 10^6, 10^5, or 10^4 BV173 cells died 8-10, 9-12, 13-15, or 14-22 weeks later, respectively, due to leukemia cell growth as confirmed on necroscopy. Spleen weight was about 40 times higher than that in noninjected SCID mice while liver and kidneys had numerous metastases and were enlarged 10-fold as compared to noninjected mice. Mice injected with 10^3 BV173 cells were still alive 35 weeks post implantation, and leukemia was never detected. From this study, 10^6 cells was taken as a lethal dose.
as §1

[6] = tested on: BV173 cells (cALL antigen (CALLA)-positive cells); assay: Immunofluorescence / flow cytometry of CALLA-positive cells in tissues of leukemic SCID mice; format: in vivo, SCID mice (human leukemic cells)
Description: A first assay comprised an immunofluorescence analysis of cALL antigen (CALLA)-positive cells. All BV173 cells but not normal murine hematopoietic cells express this antigen (assay sensitivity=10^-2). Single cell suspensions were prepared for flow cytometry analysis from peripheral blood, spleen and bone marrow cells of the leukemic SCID mice by centrifugation on a lymphocyte-M gradient (Cedarlane Labs, Ltd., Ontario, Canada). Cells (1×10^5) were stained with the FITC-conjugated mouse anti-CALLA monoclonal antibody (Becton-Dickinson Immunocytometry Systems, San Jose, Calif.) to human CD10 antigen. After staining, cells were washed and analyzed by flow cytometry using the Epics Profile Analyzer (Coulter Electronic).
as §1

[7] = tested on: bcr-abl (b2/a2) transcripts; assay: RT-PCR of bcr-abl transcripts in tissues of leukemic SCID mice; format: in vivo, SCID mice (human leukemic cells)
Description: According to a third assay, the extent of leukemic disease was assessed by chain RT-PCR to monitor the expression of b2/a2 transcripts (assay sensitivity=[…]) in total RNA isolated from bone marrow cells, splenocytes, peripheral blood leukocytes, liver, lung and brain tissues. Depending on the number of BV173 cells injected, various numbers of leukemic cells were detected by clonogenic assay and RT-PCR in murine tissues, 3 and 6 weeks after injection. A few days before the expected death of leukemic SCID mice, approximately 80, 65, and 10% cALLA-positive cells were detected in bone marrow cells, splenocytes and peripheral blood leukocytes, respectively.
as §1
At 7 (+7) and 21 (+21) days after injecting SCID mice with 10^6 BV173 cells, single cell suspensions were prepared from various tissues. After lysing red cells with 0.83% NH4 Cl buffered with 0.17 mM Tris-HCl, pH 7.4, total RNA was extracted as described (Chomczynski and Sacchi, Anal. Biochem. 162, 156 (1987)) and the suspension was divided into two equal aliquots. Bcr-abl and β-actin transcripts were reverse-transcribed and amplified with specific primers and Taq polymerase as described by Szczylik et al., Science 253, 562 (1991). Amplification products were separated on a 2% agarose gel, transferred to a nitrocellulose filter and hybridized with a synthetic 40-base c-abl fragment or 20-base β-actinfragment end-labeled with [γ^32 -P]-ATP and polynucleotide kinase. The c-abl probe recognizes an amplified 257-bp sequence containing the bcr-abl junction: the β-actin probe recognizes a 209-bp fragment, contained within the 5' and 3' β-actin primers (Tokunaga et al., Nucleic Acids Res. 14, 2829 (1986)).

[8] = from day +21, 26 days after treatment (8 weeks)

**Q.** For “SEQ ID NO:9: 18-mer antisense oligonucleotide GAAGGGCTTC TGCGTCTC completely complementary to the b1a2 junction (antisense GAAGGGCTTCTGCGTCTC; chemistry not given here)”, which leukemic cell number [1] is on record?
**A.** significant reduction in leukemic cell number over the control and mismatch-treated cultures

**Q.** Which “inhibition of the Ph1-positive cell line K562” value (K562) does the source give for “SEQ ID NO:27: antisense oligodeoxynucleotide TACTGGCCGC TGAAGGGC complementary to 18 nucleotides of the second exon of c-abl (antisense TACTGGCCGCTGAAGGGC; DNA, backbone and methylation of C not given here)” here?
**A.** inhibition of the Ph^1 -positive cell line K562

**Q.** And the “reducing bcr-abl protein levels” value (bcr-abl protein; Caracciolo et al., Science 245)?
**A.** effective in reducing bcr-abl protein levels

**Q.** And the “specificity for the bcr-abl junction” value (bcr-abl protein; hybridization to message from untranslocated abl)?
**A.** not specific for the bcr-abl junction, as it also hybridizes to the message from untranslocated abl

**Q.** For “SEQ ID NO:29: b2a2 antisense phosphorothioate 26-mer CGCTGAAGGGCTTCTTCCTT ATTGAT (antisense CGCTGAAGGGCTTCTTCCTTATTGAT; all phosphorothioate, sugars by position and methylation of C not given here)”, which “apparently disease-free, days after injection of leukemic cells” value (BV173 cells [2]; 1 mg/mouse x9 i.v. from day 7) is on record?
**A.** ≥ 42 days

**Q.** What about the “apparently disease-free, days after injection of leukemic cells” value (BV173 cells [2]; 1 mg/mouse x9 i.v. from day 21) of the same substance?
**A.** ≥ 56 days

**Q.** And the “protection from leukemic disease” value (BV173 cells [2]; SCID mice injected with BV173 cells)?
**A.** protected from the disease

**Q.** And the “macroscopic examination: metastases / leukemic nodules in liver, kidneys, splenomegaly” value (BV173 cells [2]; from day +21, 26 days after treatment (8 weeks), FIG. 11)?
**A.** not in antisense-treated animal

**Q.** What about the “leukemic colonies, peripheral blood leukocytes” value (BV173 cells [3]; 1 mg/day i.v. x9 from day +7, killed 26 days after last treatment (6 weeks)) of the same substance?
**A.** no detectable colonies

**Q.** What about the “leukemic colonies, peripheral blood mononuclear cells” value (BV173 cells [3]; 1 mg/mouse/day x9 from day +21, 12 days after last treatment (6 weeks), untreated 11.0±8.5) of the same substance?
**A.** 0 colonies

**Q.** What about the “leukemic colonies, spleen” value (BV173 cells [3]; 1 mg/mouse/day x9 from day +21, 12 days after last treatment (6 weeks), untreated 80.5±12.0) of the same substance?
**A.** 0 colonies

**Q.** And the “leukemic colonies, bone marrow” value (BV173 cells [3]; 1 mg/mouse/day x9 from day +21, 26 days after treatment (8 weeks))?
**A.** not after antisense treatment

**Q.** What about the inhibition of proliferation (BV173 cells (b2/a2); 3.0 μM, 9 days in culture) of the same substance?
**A.** 100%

**Q.** What about the “inhibition of proliferation of BV173 cells” value (BV173 cells (b2/a2); in comparison to untreated control cells (FIG. 7)) of the same substance?
**A.** Only the b2/a2 antisense oligodeoxynucleotide inhibited the proliferation of BV173 cells

**Q.** What about the “cell-associated accumulation of antisense oligomer in various organs” value [4] of the same substance?
**A.** 4 to 60 µM

**Q.** What about the “mortality / survival outcome” value (BV173 cells [5]) of the same substance?
**A.** prolonged survival

**Q.** And the “survival after i.v. injection of 10^6 BV173 cells” value (BV173 cells [5])?
**A.** ≥ 16 weeks

**Q.** And the “CALLA+ cells in tissues” value ([6]; from day +7, 26 days after last treatment (6 weeks))?
**A.** No CALLA+ cells were detected

**Q.** What about the “CALLA+ cells in tissues” value ([6]; from day +21, 12 days after last treatment (6 weeks)) of the same substance?
**A.** not detected after antisense treatment

**Q.** And the “CALLA+ cells in tissues” value [6, 8]?
**A.** not detected in the antisense-treated mouse

**Q.** And the “bcr-abl transcripts in tissues” value ([7]; from day +7, 12 days after last treatment (4 weeks), blood, spleen, bone marrow, liver, lung, brain)?
**A.** not in the antisense-treated mouse

**Q.** And the “bcr-abl (b2/a2) transcripts in tissues” value ([7]; from day +7, 26 days after last treatment (6 weeks), blood leukocytes, spleen, bone marrow, liver, lung, brain)?
**A.** no bcr-abl (b2/a2) transcripts in the tissues

**Q.** And the “RT-PCR product (bcr-abl), spleen” value [7, 8]?
**A.** less abundant than in the sense-treated mouse

**Q.** And the “bcr-abl transcripts in tissues” value [7, 8]?
**A.** undetectable after antisense-treatment in each tissue analyzed except spleen

— patent US5652222A, “Selective inhibition of leukemic cell proliferation by bcr-abl antisense oligonucleotides” (Temple University-of The Commonwealth System of Higher …, priority 1993, dated 1997)
